Laboratory results: ChEMBL document CHEMBL3045901, “Aryldiones incorporating a [1,4,5]oxadiazepane ring. Part 2: chemistry and biology of the cereal herbicide pinoxaden” (Pest Manag Sci, 2011)
Values after ≈ are worked out from the molar mass of the structure shown.

What was measured:
Setaria faberi = assay: Herbicidal activity against Setaria faberi (Giant Foxtail) assessed as weed control at 30 g/ha under greenhouse measured after 21 days by post-emergence test; type: functional
Lolium perenne = assay: Herbicidal activity against Lolium perenne (perennial ryegrass) assessed as weed control at 30 g/ha under greenhouse measured after 21 days by post-emergence test; type: functional
Avena fatua = assay: Herbicidal activity against Avena fatua assessed as weed control at 30 g/ha under greenhouse measured after 21 days by post-emergence test; type: functional
Alopecurus myosuroides = assay: Herbicidal activity against Alopecurus myosuroides assessed as weed control at 30 g/ha under greenhouse measured after 21 days by post-emergence test; type: functional
Triticum aestivum = assay: Herbicidal activity against Triticum aestivum (wheat) assessed as weed control at 30 g/ha under greenhouse measured after 21 days by post-emergence test; type: functional
Hordeum vulgare = assay: Herbicidal activity against Hordeum vulgare (barley) assessed as weed control at 30 g/ha under greenhouse measured after 21 days by post-emergence test; type: functional
[1] = Dissociation constant, pKa of the compound; type: physicochemical
[2] = Lipophilicity, log P of the compound at pH7 at 20 degC; type: physicochemical; conditions: buffer, pH 7
[3] = Solubility in water at pH7 at 20 degC; type: physicochemical; conditions: pH 7
[4] = Lipophilicity, log P of the compound at pH5 at 20 degC; type: physicochemical; conditions: buffer, pH 5
[5] = Solubility in water at pH5 at 20 degC; type: physicochemical; conditions: pH 5
[6] = Aqueous hydrolysis of the compound at pH 9 at 20 degC; type: physicochemical; conditions: aqueous solution, read-out: DT50 (converted)
[7] = Aqueous hydrolysis of the compound at pH 4 at 20 degC; type: physicochemical; conditions: aqueous solution, read-out: DT50 (converted)
[8] = Aqueous hydrolysis of the compound at pH 5 at 20 degC; type: physicochemical; conditions: aqueous solution, read-out: DT50 (converted)
[9] = Aqueous hydrolysis of the compound at pH 7 at 20 degC; type: physicochemical; conditions: aqueous solution, read-out: DT50 (converted)

Row | SMILES | Activity (Setaria faberi) | Activity (Lolium perenne) | Activity (Avena fatua) | Activity (Alopecurus myosuroides) | Activity (Triticum aestivum) | Activity (Hordeum vulgare) | pKa [1] | logD [2] | solubility [3] | logD [4] | solubility [5] | half-life [6] | half-life [7] | half-life [8] | half-life [9]
1 | CCc1cc(C)cc(CC)c1C1C(=O)N2CC(C)OC(C)CN2C1=O (centres undefined) | 90% | 80% | 90% | 50% | 0% | 0% | – | – | – | – | – | – | – | – | –
2 | CCc1cc(C)cc(CC)c1C1C(=O)N2COC(CC)CN2C1=O (centres undefined) | 90% | 100% | 100% | 90% | 60% | 20% | – | – | – | – | – | – | – | – | –
3 | CCc1cc(I)cc(CC)c1C1C(=O)N2CCOCCN2C1=O | 0% | 0% | 0% | 0% | 0% | 0% | – | – | – | – | – | – | – | – | –
4 | CC#Cc1cc(C)cc(C)c1C1C(=O)N2CCOCCN2C1=O | 40% | 60% | 40% | 0% | 10% | 10% | – | – | – | – | – | – | – | – | –
5 | Cc1cc(C)c(C2C(=O)N3CCOCCN3C2=O)c(Br)c1 | 40% | 90% | 40% | 0% | 0% | 0% | – | – | – | – | – | – | – | – | –
6 | CCc1cc(C)cc(CC)c1C1C(=O)N2CCC(O)CCN2C1=O | 90% | 90% | 100% | 100% | 80% | 40% | – | – | – | – | – | – | – | – | –
7 | CCc1cccc(CC)c1C1C(=O)N2CCOCCN2C1=O | 90% | 0% | 0% | 0% | 0% | 0% | – | – | – | – | – | – | – | – | –
8 | CCc1cc(C)cc(CC)c1C1C(=O)N2CCOC(C)CN2C1=O (centres undefined) | 90% | 90% | 40% | 60% | 0% | 0% | – | – | – | – | – | – | – | – | –
9 | C#Cc1cc(C)cc(CC)c1C1C(=O)N2CCOCCN2C1=O | 100% | 100% | 100% | 100% | 50% | 50% | – | – | – | – | – | – | – | – | –
10 | Cc1cc(C)c(C2C(=O)N3CCOCCN3C2=O)c(C)c1 | 50% | 80% | 60% | 10% | 0% | 0% | – | – | – | – | – | – | – | – | –
11 | CCc1cc(C)cc(CC)c1C1C(=O)N2C(C)COCC(C)N2C1=O (centres undefined) | 80% | 40% | 50% | 60% | 0% | 0% | – | – | – | – | – | – | – | – | –
12 | CCc1cc(C)cc(CC)c1C1C(=O)N2COC(C)CN2C1=O (centres undefined) | 90% | 60% | 100% | 40% | 10% | 20% | – | – | – | – | – | – | – | – | –
13 | C#Cc1cc(C)cc(C#C)c1C1C(=O)N2CCOCCN2C1=O | 90% | 80% | 90% | 80% | 20% | 20% | – | – | – | – | – | – | – | – | –
14 | Cc1cc(C)c(C2C(=O)N3CCOCCN3C2=O)c(C2CC2)c1 | 60% | 50% | 90% | 0% | 0% | 0% | – | – | – | – | – | – | – | – | –
15 | CCCc1cc(C)cc(C)c1C1C(=O)N2CCOCCN2C1=O | 40% | 60% | 80% | 20% | 0% | 0% | – | – | – | – | – | – | – | – | –
16 | CCc1cc(C)c(C2C(=O)N3CCOCCN3C2=O)c(CC)c1 | 60% | 60% | 50% | 0% | 0% | 0% | – | – | – | – | – | – | – | – | –
17 | CCc1cc(-c2ccccc2)cc(OC)c1C1C(=O)N2CCOCCN2C1=O | 90% | 90% | 100% | 80% | 90% | 90% | – | – | – | – | – | – | – | – | –
18 | CCc1cc(C)cc(CC)c1C1C(=O)N2C[C@H]3CC[C@@H](CN2C1=O)O3 (some centres undefined) | 80% | 80% | 80% | 40% | 0% | 0% | – | – | – | – | – | – | – | – | –

Row | SMILES | Activity (Setaria faberi) | Activity (Lolium perenne) | Activity (Avena fatua) | Activity (Alopecurus myosuroides) | Activity (Triticum aestivum) | Activity (Hordeum vulgare) | pKa [1] | logD [2] | solubility [3] | logD [4] | solubility [5] | half-life [6] | half-life [7] | half-life [8] | half-life [9]
19 | CCc1cc(C)cc(CC)c1C1C(=O)N2CCCOCN2C1=O (centres undefined) | 10% | 40% | 40% | 0% | 0% | 0% | – | – | – | – | – | – | – | – | –
20 | CCc1cc(C)cc(CC)c1C1C(=O)N2CCOCN2C1=O (centres undefined) | 10% | 10% | 40% | 0% | 0% | 0% | – | – | – | – | – | – | – | – | –
21 | C#Cc1cc(C)cc(C)c1C1C(=O)N2CCOCCN2C1=O | 100% | 90% | 100% | 80% | 50% | 40% | – | – | – | – | – | – | – | – | –
22 | CCc1cc(C)cc(CC)c1C1C(=O)N2CCOC(CC)CN2C1=O (centres undefined) | 20% | 80% | 40% | 20% | 0% | 0% | – | – | – | – | – | – | – | – | –
23 | COc1cc(C)cc(Br)c1C1C(=O)N2CCOCCN2C1=O | 60% | 100% | 60% | 20% | 10% | 20% | – | – | – | – | – | – | – | – | –
24 | CCc1cc(C)cc(C)c1C1C(=O)N2CCOCCN2C1=O | 60% | 60% | 80% | 60% | 20% | 40% | – | – | – | – | – | – | – | – | –
25 | CCc1cc(C)cc(CC)c1C1C(=O)N2C[C@H]3COC[C@H]3CN2C1=O (some centres undefined) | 100% | 90% | 100% | 100% | 40% | 0% | – | – | – | – | – | – | – | – | –
26 | C#Cc1cc(C)c(C2C(=O)N3CCOCCN3C2=O)c(CC)c1 | 20% | 10% | 20% | 20% | 0% | 10% | – | – | – | – | – | – | – | – | –
27 | Cc1cc(Br)c(C2C(=O)N3CCOCCN3C2=O)c(Br)c1 | 10% | 10% | 40% | 0% | 0% | 0% | – | – | – | – | – | – | – | – | –
28 | CCCc1cc(C)cc(CCC)c1C1C(=O)N2CCOCCN2C1=O | 90% | 0% | 80% | 50% | 0% | 0% | – | – | – | – | – | – | – | – | –
29 | CCc1cc(-c2ccccc2)cc(CC)c1C1C(=O)N2CCOCCN2C1=O | 80% | 80% | 90% | 90% | 80% | 80% | – | – | – | – | – | – | – | – | –
30 | CCc1cc(CC)c(C2C(=O)N3CCOCCN3C2=O)c(CC)c1 | 40% | 60% | 60% | 40% | 0% | 0% | – | – | – | – | – | – | – | – | –
31 | Cc1cc(C)c(C2C(=O)N3CCOCCN3C2=O)c(C(C)C)c1 | 20% | 50% | 50% | 0% | 0% | 0% | – | – | – | – | – | – | – | – | –
32 | CCc1cc(C)cc(CC)c1C1C(=O)N2CCOCCN2C1=O [PINOXADEN DIONE] | 90% | 90% | 100% | 100% | 10% | 0% | 3.82 | -1.1 | > 300000 µg/mL | 0.62 | 5200 µg/mL (≈ 16.4 mM) | < 24 h | < 24 h | < 24 h | < 24 h
33 | CCc1cc(C)cc(CC)c1C1C(=O)N2CCC(C)(O)CCN2C1=O | 90% | 100% | 80% | 100% | 80% | 90% | – | – | – | – | – | – | – | – | –
34 | C#Cc1cc(C)cc(OC)c1C1C(=O)N2CCOCCN2C1=O | 90% | 100% | 0% | 20% | 0% | 0% | – | – | – | – | – | – | – | – | –
35 | CCc1cc(C)cc(OC)c1C1C(=O)N2CCOCCN2C1=O | 100% | 80% | 90% | 90% | 50% | 50% | – | – | – | – | – | – | – | – | –
